Assay results published in patent publication US20120040977A1, “INHIBITORS OF HCV NS5A” (PRESIDIO PHARMACEUTICALS, INC., priority 2009, published 2012).

system: HCV genotype 1b replicon; assay: HCV replicon assay (HCV 1b_Huh-Luc/Neo-ET cell line, luciferase readout); assay type: cell-based; details: Hepatitis C virus; bicistronic genotype 1b replicon in Huh 7 cells, 72 h incubation, luciferase enzyme activity; read-out: Inhibition of HCV genotype 1b
Procedure, shortened: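 Huh 7 cells carrying a bicistronic genotype 1b luciferase replicon treated with compound in triplicate for 72 h. Luciferase activity expressed as percent of untreated control; EC50 from four-parameter curve fit, determined several times.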

Q: With `COC(=O)N[C@@H](C(=O)N1CCC[C@H]1C(=O)Nc1ccc(-c2ccc3nc([C@@H]4CCCN4C(=O)[C@H](NC(=O)OC)c4ccccc4)[nH]c3c2)cc1)c1ccccc1` [Compound 74] as the compound, how does the EC50 read?
A: < 1 nM

Q: Which EC50 does the source give for `COC(=O)N[C@@H](C(=O)N1CCC[C@H]1c1ncc(-c2ccc(-c3ccc(C(=O)NC[C@@H]4CCCN4C(=O)[C@H](NC(=O)N4CCN(C)CC4)c4ccccc4)cc3)cc2)[nH]1)c1ccccc1` [Compound 66] here?
A: < 1 nM

Q: `COC(=O)N[C@H](C(=O)N1CCC[C@H]1C(=O)NCc1ccc(-c2ccc3nc([C@@H]4CCCN4C(=O)[C@@H](NC(=O)OC)C(C)C)[nH]c3c2)cn1)C(C)C` [Compound 121] was tested. Which EC50 did it give?
A: 10 to 999 nM

Q: Which EC50 does the source give for `COC(=O)N[C@@H](C(=O)N1CCC[C@H]1CNC(=O)c1ccc(-c2ccc(-c3cnc([C@@H]4CCCN4C(=O)[C@@H](c4ccccc4)N4CCOCC4)[nH]3)cc2)cc1)c1ccccc1` [Compound 62] here?
A: < 1 nM

Q: For `COC(=O)N[C@H](C(=O)N1CCC[C@H]1C(=O)NCc1ccc(-c2ccc(-c3cnc([C@@H]4CCCN4C(=O)[C@@H](NC(=O)OC)C(C)C)[nH]3)cn2)cc1)C(C)C` [Compound 116], which EC50 is on record?
A: 10 to 999 nM

Q: Which EC50 does the source give for `CN1CCN(C(=O)N[C@@H](C(=O)N2CCC[C@H]2COc2ccc(-c3ccc(-c4cnc([C@@H]5CCCN5C(=O)[C@H](NC(=O)N5CCN(C)CC5)c5ccccc5)[nH]4)cc3)cc2)c2ccccc2)CC1` [Compound 35] here?
A: 1 to 9.9 nM

Q: For `CC(C)(C)OC(=O)N[C@@H](C(=O)N1CCOC[C@H]1C(=O)Nc1ccc(-c2ccc(-c3cnc([C@@H]4CCCN4C(=O)[C@H](NC(=O)OC(C)(C)C)c4ccccc4)[nH]3)cc2)cc1)c1ccccc1` [Compound 21], which EC50 is on record?
A: < 1 nM

Q: Which EC50 does the source give for `CC(C)[C@@H](NC(=O)C1CC1)C(=O)N1CCC[C@H]1C(=O)Nc1ccc(-c2ccc(-c3cnc([C@@H]4CCCN4C(=O)[C@H](NC(=O)C4CC4)C(C)C)[nH]3)cc2)cc1` [Compound 29] here?
A: 1 to 9.9 nM

Q: How did the EC50 turn out when `COC(=O)N[C@@H](C(=O)N1CCC[C@H]1CNC(=O)c1ccc(-c2ccc(-c3cnc([C@@H]4CCCN4C(=O)[C@H](NC(=O)OC)c4ccccc4)[nH]3)cn2)cc1)c1ccccc1` [Compound 79] was run?
A: < 1 nM

Q: With `C[C@H](NC(=O)[C@@H]1CCCN1C(=O)[C@H](NC(=O)N1CCOCC1)c1ccccc1)c1ccc(-c2ccc(-c3cnc([C@@H]4CCCN4C(=O)[C@H](NC(=O)N4CCOCC4)c4ccccc4)[nH]3)cc2)cc1` [Compound 38] as the compound, how does the EC50 read?
A: 1 to 9.9 nM

Q: How did the EC50 turn out when `C[C@@H](NC(=O)OC(C)(C)C)C(=O)N1CCOC[C@H]1C(=O)Nc1ccc(-c2ccc(-c3cnc([C@@H]4COCCN4C(=O)[C@@H](C)NC(=O)OC(C)(C)C)[nH]3)cc2)cc1` [Compound 17] was run?
A: 10 to 999 nM

Q: For `O=C(N[C@@H](C(=O)N1CCC[C@H]1c1ncc(-c2ccc(Sc3ccc(-c4cnc([C@@H]5CCCN5C(=O)[C@H](NC(=O)C5CC5)c5ccccc5)[nH]4)cc3)cc2)[nH]1)c1ccccc1)C1CC1` [Compound 50], which EC50 is on record?
A: < 1 nM

Q: How did the EC50 turn out when `CC(C)(C)OC(=O)N[C@@H](C(=O)N1CCC[C@H]1c1ncc(-c2ccc(Sc3ccc(-c4cnc([C@@H]5CCCN5C(=O)[C@H](NC(=O)OC(C)(C)C)c5ccccc5)[nH]4)cc3)cc2)[nH]1)c1ccccc1` [Compound 46] was run?
A: < 1 nM

Q: With `COC(=O)N[C@H](C(=O)N1CCC[C@H]1C(=O)N[C@H](C)c1ccc(-c2ccc(-c3cnc([C@@H]4CCCN4C(=O)[C@@H](NC(=O)OC)C(C)C)[nH]3)cc2)cc1)C(C)C` [Compound 97] as the compound, how does the EC50 read?
A: 1 to 9.9 nM

Q: `COC(=O)N[C@H](C(=O)N1CCC[C@H]1C(=O)N[C@H](C)c1ccc(-c2ccc(-c3cnc([C@@H]4CCCN4C(=O)[C@@H](NC(=O)OC)C4CCOCC4)[nH]3)cc2)cc1)C1CCOCC1` [Compound 103] was tested. Which EC50 did it give?
A: 10 to 999 nM

Q: How did the EC50 turn out when `COC(=O)N[C@H](C(=O)N1CCC[C@H]1C(=O)N[C@H](C)c1ccc(-c2ccc(-c3cnc([C@@H]4CCCN4C(=O)[C@@H](NC(=O)OC)[C@@H](C)OC)[nH]3)cc2)cc1)[C@@H](C)OC` [Compound 102] was run?
A: 10 to 999 nM

Q: Which EC50 does the source give for `COC(=O)N[C@H](C(=O)N1CCC[C@H]1C(=O)NCc1ccc(-c2ccc(-c3cnc([C@@H]4CCCN4C(=O)[C@@H](NC(=O)OC)C4CCOCC4)[nH]3)cc2)cc1)C1CCOCC1` [Compound 107] here?
A: 10 to 999 nM

Q: How did the EC50 turn out when `COC(=O)N[C@@H](C)C(=O)N1CCC[C@H]1C(=O)NCc1ccc(-c2ccc(-c3cnc([C@@H]4CCCN4C(=O)[C@H](C)NC(=O)OC)[nH]3)cc2)cc1` [Compound 104] was run?
A: 10 to 999 nM
